# Reference: publication PMC7749516, “Safety and nonclinical and clinical pharmacokinetics of PC945, a novel inhaled triazole antifungal agent” (Pharmacology Research & Perspectives, 2020)
# “And” between values parts separate entries of the source, which are not always exact repeats. Equal entries are not always repeated.
# Experiments:
# [1] = Toxicokinetics/toxicity in dogs, daily 2-hour inhalation for 14 days (plasma); conditions: for Ro (accumulation ratio): AUC0‐24h (Day14)/AUC0‐24h (Day 1)
# Description: (§1) Each dose was inhaled over a 2‐hour period once daily for 14 days.
# (§2) Lower limit of quantification of the assay was 10 pg/mL for clinical samples and 100 pg/mL for rat and dog plasma samples.
# A. fumigatus strains = tested on: A. fumigatus strains; set-up: method as in PMID 28223388; conditions: EUCAST method, 96 clinically isolated A. fumigatus strains; cited from earlier work
# [2] = Toxicokinetics/toxicity in rats, daily 2-hour inhalation for 14 days (plasma); conditions: for Ro (accumulation ratio): AUC0‐24h (Day14)/AUC0‐24h (Day 1)
# Description: as §1, §2
# [3] = female dogs, Day 14 of inhaled 1.7 mg/kg/day, mean
# [4] = female dogs, Day 14 of inhaled 5.3 mg/kg/day, mean
# [5] = female dogs, Day 14 of inhaled 18.1 mg/kg/day, mean
# [6] = female dogs, single inhaled dose 1.7 mg/kg, mean ± SD
# [7] = female dogs, single inhaled dose 5.3 mg/kg, mean ± SD
# [8] = female dogs, single inhaled dose 18.1 mg/kg, mean ± SD
# [9] = male dogs, Day 14 of inhaled 1.7 mg/kg/day, mean
# [10] = male dogs, Day 14 of inhaled 5.3 mg/kg/day, mean
# [11] = male dogs, Day 14 of inhaled 18.1 mg/kg/day, mean
# [12] = male dogs, single inhaled dose 1.7 mg/kg, mean ± SD
# [13] = male dogs, single inhaled dose 5.3 mg/kg, mean ± SD
# [14] = male dogs, single inhaled dose 18.1 mg/kg, mean ± SD
# [15] = female rats, Day 14 of inhaled 2.0 mg/kg/day
# [16] = female rats, Day 14 of inhaled 7.1 mg/kg/day
# [17] = female rats, Day 14 of inhaled 16.6 mg/kg/day
# [18] = female rats, single inhaled dose 2.0 mg/kg (Day 1)
# [19] = female rats, single inhaled dose 7.1 mg/kg (Day 1)
# [20] = female rats, single inhaled dose 16.6 mg/kg (Day 1)
# [21] = male rats, Day 14 of inhaled 2.0 mg/kg/day
# [22] = male rats, Day 14 of inhaled 7.1 mg/kg/day
# [23] = male rats, Day 14 of inhaled 16.6 mg/kg/day
# [24] = male rats, single inhaled dose 2.0 mg/kg (Day 1)
# [25] = male rats, single inhaled dose 7.1 mg/kg (Day 1)
# [26] = male rats, single inhaled dose 16.6 mg/kg (Day 1)
smiles,measurement,setting,value
Cc1cc(N2CCN(c3ccc(C(=O)Nc4ccc(F)cc4)cc3)CC2)ccc1OC[C@@H]1CO[C@@](Cn2cncn2)(c2ccc(F)cc2F)C1 [PC945],Margin over the clinical AUC following a 5 mg dose,"[1]; dog, highest dose tested",threefold
same,Time of C max after a single dose,"[1]; dogs, after the 2‐hour dosing period",immediately
same,Systemic toxicity,"[1]; dogs, highest dose tested",No systemic toxicity
same,Ro (accumulation ratio),"[1]; female dogs, 1.7 mg/kg/day",2.27
same,Ro (accumulation ratio),"[1]; female dogs, 5.3 mg/kg/day",1.88
same,Ro (accumulation ratio),"[1]; female dogs, 18.1 mg/kg/day",1.26
same,AUC0‐24h,[1]; [3],27.7 ng·h/mL
same,C max,[1]; [3],2.3 ng/mL
same,AUC0‐24h,[1]; [4],73.3 ng·h/mL
same,C max,[1]; [4],5.5 ng/mL
same,AUC0‐24h,[1]; [5],114 ng·h/mL
same,C max,[1]; [5],7.8 ng/mL
same,AUC0‐24h,[1]; [6],12.2 ± 2.9 ng·h/mL
same,C max,[1]; [6],1.5 ± 0.5 ng/mL
same,AUC0‐24h,[1]; [7],39.0 ± 2.7 ng·h/mL
same,C max,[1]; [7],4.3 ± 0.7 ng/mL
same,AUC0‐24h,[1]; [8],90.6 ± 6.7 ng·h/mL
same,C max,[1]; [8],10.2 ± 1.3 ng/mL
same,Ro (accumulation ratio),"[1]; male dogs, 1.7 mg/kg/day",2.06
same,Ro (accumulation ratio),"[1]; male dogs, 5.3 mg/kg/day",1.84
same,Ro (accumulation ratio),"[1]; male dogs, 18.1 mg/kg/day",2.29
same,AUC0‐24h,[1]; [9],35.5 ng·h/mL
same,C max,[1]; [9],2.8 ng/mL
same,AUC0‐24h,[1]; [10],70.9 ng·h/mL
same,C max,[1]; [10],5.6 ng/mL
same,AUC0‐24h,[1]; [11],203 ng·h/mL
same,C max,[1]; [11],13.5 ng/mL
same,AUC0‐24h,[1]; [12],17.2 ± 3.5 ng·h/mL
same,C max,[1]; [12],2.2 ± 0.3 ng/mL
same,AUC0‐24h,[1]; [13],38.5 ± 1.8 ng·h/mL
same,C max,[1]; [13],4.6 ± 0.4 ng/mL
same,AUC0‐24h,[1]; [14],88.5 ± 25.8 ng·h/mL
same,C max,[1]; [14],9.7 ± 2.4 ng/mL
same,Geometric mean minimum inhibitory concentration (MIC),A. fumigatus strains,0.17 µg/mL
same,MIC50,A. fumigatus strains,0.125 µg/mL
same,MIC90,A. fumigatus strains,1.0 µg/mL and 1 µg/mL
same,Ro (accumulation ratio),"[2]; female rats, 2.0 mg/kg/day",1.84
same,Ro (accumulation ratio),"[2]; female rats, 16.6 mg/kg/day",2.53
same,AUC0‐24h,[2]; [15],336 ng·h/mL
same,C max,[2]; [15],19.2 ng/mL
same,AUC0‐24h,[2]; [16],749 ng·h/mL
same,C max,[2]; [16],50.4 ng/mL
same,AUC0‐24h,[2]; [17],1850 ng·h/mL
same,C max,[2]; [17],92.3 ng/mL
same,AUC0‐24h,[2]; [18],183 ng·h/mL
same,C max,[2]; [18],10.5 ng/mL
same,AUC0‐24h,[2]; [19],416 ng·h/mL
same,C max,[2]; [19],24.8 ng/mL
same,AUC0‐24h,[2]; [20],731 ng·h/mL
same,C max,[2]; [20],41.3 ng/mL
same,Ro (accumulation ratio),"[2]; male rats, 2.0 mg/kg/day",1.96
same,AUC0‐24h,[2]; [21],202 ng·h/mL
same,C max,[2]; [21],12.3 ng/mL
same,AUC0‐24h,[2]; [22],424 ng·h/mL
same,C max,[2]; [22],23.7 ng/mL
same,AUC0‐24h,[2]; [23],1140 ng·h/mL
same,C max,[2]; [23],76.9 ng/mL
same,AUC0‐24h,[2]; [24],103 ng·h/mL
same,C max,[2]; [24],7.3 ng/mL
same,AUC0‐24h,[2]; [25],217 ng·h/mL
same,C max,[2]; [25],15.8 ng/mL
same,AUC0‐24h,[2]; [26],426 ng·h/mL
same,C max,[2]; [26],26.0 ng/mL
same,Margin over the clinical AUC following a 5 mg dose,"[2]; rat, highest dose tested",12 fold
same,Time of C max after a single dose,"[2]; rats, after the 2-hour inhalation",4 h
same,Systemic toxicity,"[2]; rats, highest dose tested",No systemic toxicity
same,Time of C max after the start of dosing,"[2]; rats, single 2-hour inhaled dose (Day 1)",6 h
